In US9670242B2, “Tetracyclic anthraquinone derivatives” (Tianjin Hemay Bio-Tech Co., Ltd, priority 2012, dated 2017):

Columns and labels:
[1] = tested on: NCI-H460 cells; assay: NCI-H460 cell growth inhibition test (MTT assay); format: cell-based, human; settings: NCI-460 cells (NCI-H460 in method), 72 h
Procedure: NCI-H460 Cell Growth Inhibition Test (MTT Assay)
(§1) II. Reagents and Consumable Materials
(§2) Culture medium: 90% RPMI1640+10% FBS (fetal calf serum); Pancreatin (0.25% (w/v) solution was formulated with PBS, 0.53 mM of EDTA was added in the formulation); PBS; 96-well culture plate.
(§3) 1. A plate (10 cm) of cells in logarithmic growth phase that were normally cultured was collected;
(§4) 2. The culture solution was sucked out. The plate was washed with 5 mL of PBS once or twice;
(§5) 3. PBS was sucked out. 1.5 mL of 0.25% pancreatin was added to the plate to infiltrate the cells for 1 min;
(§6) 4. The culture plate was placed in an incubator. Digestion was carried out for about 3 min at 37° C.;
(§7) 5. 3 mL of complete culture solution was added to the culture plate to stop the digestion. The cells were carefully scoured with micropipette (1 mL) to give a uniform cell suspension. The suspension was implanted into a 96-well cell culture disc by 2000 cells/100 μL per well. The culture plate was incubated overnight under 5% CO2 at 37° C. In day 2, 100 μL of culture solution comprising a compound was added in each well. The plate was further incubated for 72 h under 5% CO2 at 37° C.;
(§8) 6. The culture solution was sucked out;
(§9) 7. 100 μL of serum-free culture solution containing 0.5 mg/mL MTT was added in each well. The plate was incubated for 3 h;
(§10) 8. The culture solution was carefully sucked out;
9. […]
(§11) 10. OD values were determined at 490 nM. […]

[2] = tested on: B16 cells; assay: B16 cell growth inhibition test (MTT assay); format: cell-based, mouse; settings: 72 h
Procedure: B16 Cell Growth Inhibition Test (MTT Assay)
as §1, §2, §3, §4, §5
4. The culture plate was placed in an incubator. Digestion was carried out for about 1 min at 37° C.;
as §7, with “2500” for “2000”
as §8
7. 100 μl of serum-free culture solution containing 0.5 mg/mL MTT was added in each well. The plate was incubated for 3 h;
as §10
9. 100 μL of DMSO was added in each well and vibrated to dissolve;
10. OD values were determined at 490 nM.
(§12) IV. Results and Treatments
1. Calculation of Relative Inhibition Ratio The inhibition ratio of a compound on cell growth=(PC−n)/(PC−NC)×100%
PC: OD values of cells after normal growth in control wells without a compound;
n: OD values of cells after growth in test wells with a compound;
NC: Background OD values of blank wells without a compound and cells.

[3] = tested on: SK-Br-3 cells; assay: SK-Br-3 cell growth inhibition test (SRB assay); format: cell-based, human; settings: 72 h
Procedure: SK-Br-3 Cell Growth Inhibition Test (SRB Assay)
as §1
Culture medium: 85% DMEM+15% FBS; pancreatin (0.25% (w/v) solution was formulated with PBS, 0.53 mM of EDTA was added in the formulation); PBS; 96-well culture plate.
as §3, §4
(§13) 3. 1.5 mL of 0.25% pancreatin was added to the plate to infiltrate the cells;
4. The pancreatin was sucked out. The culture plate was placed in an incubator. Digestion was carried out for about 2 min at 37° C.;
as §7, with “5. 4” for “5. 3”, “uniform single” for “uniform”, “culture plate” for “culture disc”, “by 10000” for “by 2000”
(§14) 6. The culture solution was sucked out. 100 uL of TCA fixed cells which were diluted to 10% were added to each well. The plate was kept in a refrigerator for 1 h at 4° C.
7. TCA stationary liquid was sucked out. […]
13. OD values were determined at […]. […]

[4] = tested on: Hep3B cells; assay: Hep3B cell growth inhibition test (SRB assay); format: cell-based; settings: 72 h
Procedure: Hep3B Cell Growth Inhibition Test (SRB Assay)
as §1
Culture medium: 90% RPMI-1640+10% FBS; Pancreatin (0.25% (w/v) solution was formulated with PBS, 0.53 mM of EDTA was added in the formulation); PBS; 96-well culture plate.
as §3, §4, §13
4. The pancreatin was sucked out. The culture plate was placed in an incubator. Digestion was carried out for about 3 min at 37° C.;
as §7, with “5. 4” for “5. 3”, “uniform single” for “uniform”, “culture plate” for “culture disc”, “by 5000” for “by 2000”
as §14
7. TCA stationary liquid was sucked out. Each well was washed with 150 μL of ddH2O five times;
8. After the stationary liquid was cleansed, the plate was dried in the air at the room temperature;
9. 60 μL of SRB staining solution was added in each well. The well was stained for 15 min at the room temperature;
10. The SRB staining solution was sucked out. Each well was washed with 150 μL of 1% glacial acetic acid five times;
11. After the SRB staining solution was cleansed, the plate was dried in the air at the room temperature;
12. 100 μL of 10 mM Tris was added in each well. The plate was vibrated to dissolve out SRB;
13. OD values were determined at 570 nM.
as §12
1. Calculation of Relative Inhibition Ratio The inhibition ratio of the compound on cell growth=(PC−n)/(PC−NC)×100% […]

[5] = tested on: NCI-446 cells; assay: NCI-446 cell growth inhibition test (MTT assay); format: cell-based, human; settings: 72 h
Procedure: NCI-446 Cell Growth Inhibition Test (MTT Assay)
II. Reagents and Consumable Materials Culture medium: 90% RPMI1640+10% FBS (fetal calf serum); Pancreatin (0.25% (w/v) solution was formulated with PBS, 0.53 mM of EDTA was added in the formulation); PBS; 96-well culture plate.
as §3
2. The culture solution was sucked out. The plate was washed with 5 ml of PBS once or twice;
as §5, §6
as §7, with “4000” for “2000”
as §8, §9, §10
9. […]
as §11

[6] = Solubility of the compound in water; format: physicochemical

solubility of the compound in water [6] | Compound | IC50 [1] | IC50 [2] | IC50 [3] | IC50 [4] | IC50 [5]
 | COc1cccc2c1C(=O)c1c(O)c3c(c(O)c1C2=O)CC(O)(C(=O)COC(=O)CCC(=O)O)CC3OC1CC(n2cccc2)C(O)C(C)O1 (stereo not shown) [Compound A, 3′-pyrrolyldoxorubicin-14-oxo-succinic acid monoester, reference compound] | 21 nM | 32 nM | 93 nM | 444 nM | 234 nM
 | COc1cccc2c1C(=O)c1c(O)c3c(c(O)c1C2=O)CC(O)(C(=O)COC(=O)CCC(=O)NCCOCCO)CC3OC1CC(n2cccc2)C(O)C(C)O1 (stereo not shown) [Example 62] |  | 3 nM |  |  | 
more than 7 mg/ml | CC(=O)O.COc1cccc2c1C(=O)c1c(O)c3c(c(O)c1C2=O)CC(O)(C(=O)COC(=O)CCC(=O)NCCCN1CCN(C)CC1)CC3O[C@H]1C[C@H](n2cccc2)[C@H](O)[C@H](C)O1 (stereo partly drawn) [Example 81, 10-((3′-(pyrrol-1-yll)-2′,3′,6′-trideoxy-alphal-l-lyxo-hexylpyranyl)oxy)-7,8,9,10-tetrahydro-6,8,11-trihydroxy-13-oxo-14-(4-((3-(4-methylpiperazin-1-yl)propyl)amino)-4-oxo-butyrato)-1-methoxy-5,12-naphthalenedione acetate] |  |  |  |  | 
